Data taken from patent US20170101684A1, “METHOD FOR DIAGNOSING AND TREATING MULTIPLE MYELOMA” (Erasmus University Medical Center Rotterdam, priority 2014, published 2017).

What was measured:
[1] = tested on: MM patients with amp1q chromosomal aberration; assay: Overall survival (Kaplan Meier) of MM patients with amp1q by classical FISH, PAD versus VAD; format: in vivo, human; conditions: MM patients with an amp1q chromosomal aberration
From the text: FIG. 1: Kaplan Meier curve showing 60 MM patients (see Table 2) identified as having an additional copy of chromosome 1q (amp1q) using classical FISH analysis. […] Upper line: amp1q cases treated with PAD; lower line: amp1q cases treated with VAD. Hazard Ratio=3.59, p=0.0037.
FIG. 1 provides a Kaplan-Meier curve wherein the top line represents amp1q cases treated with Bortezomib (a proteasome inhibitor), Adriamycin and Dexamethasone (PAD), and the bottom line represents amp1q cases treated with a conventional therapy (Vincristine Adriamycin Dexamethasone or VAD). A Hazard Ratio of 3.59 (p=0.0037) was found. It was concluded that MM patients with amp1q may be preferentially treated with a proteasome inhibitor such as Bortezomib since that provides these patients with a better life expectancy.
FISH analysis was performed in 304 patients. In nonpurified plasma cell samples (n=125), at least 200 interphase nuclei per sample were analyzed by the use of epi-fluorescence microscopy and image analysis software. Within several cases, a preceding analysis of selected myeloma cells was determined by immunoglobulin light chain counterstaining or morphology. In CD138-purified PC samples (n=179), 100 nuclei were evaluated by the use of an epifluorescence microscope (Leica Microsystems). […]

[2] = tested on: MM subjects without the amp1q chromosomal aberration; assay: Response of MM patients without amp1q to proteasome inhibitor; format: in vivo, human
From the text: Methods for determining whether a subject with MM has an amp1q chromosomal aberration are known in the art, and any such methods may be used in aspects of this disclosure, although preferred embodiments will be disclosed herein below.

## CC(C)C[C@H](NC(=O)[C@H](Cc1ccccc1)NC(=O)c1cnccn1)B(O)O [Bortezomib]
[1]
  Response to treatment: respond well
[2]
  Response to treatment: do not experience this advantageous response
